In PubChem BioAssay (NCI):
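Five concentrations, 48 hours, 96-well plates. Abbreviation: GI50, concentration required for 50% inhibition of growth. TGI marks complete inhibition of growth.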

Experiments:
Assay in all cases: NCI tumour cell line growth inhibition, 48 h
OVCAR-5 ovarian = tested on: OVCAR-5 ovarian
SK-MEL-28 melanoma = tested on: SK-MEL-28 melanoma
RXF 393 renal = tested on: RXF 393 renal
TK-10 renal = tested on: TK-10 renal
HCT-15 colon = tested on: HCT-15 colon
MDA-MB-435 = tested on: MDA-MB-435
SK-OV-3 ovarian = tested on: SK-OV-3 ovarian
K-562 leukemia = tested on: K-562 leukemia
MALME-3M melanoma = tested on: MALME-3M melanoma
U251 CNS = tested on: U251 CNS
MOLT-4 leukemia = tested on: MOLT-4 leukemia
NCI-H226 lung = tested on: NCI-H226 lung
SNB-75 CNS = tested on: SNB-75 CNS
NCI-H460 lung = tested on: NCI-H460 lung
IGROV1 ovarian = tested on: IGROV1 ovarian
M14 melanoma = tested on: M14 melanoma
BT-549 breast = tested on: BT-549 breast
T-47D breast = tested on: T-47D breast
NCI-H522 lung = tested on: NCI-H522 lung
NCI-H23 lung = tested on: NCI-H23 lung
EKVX NSCLC = tested on: EKVX NSCLC
RPMI-8226 leukemia = tested on: RPMI-8226 leukemia
UACC-257 melanoma = tested on: UACC-257 melanoma
DU-145 prostate = tested on: DU-145 prostate
ACHN renal = tested on: ACHN renal
COLO 205 colon = tested on: COLO 205 colon
MCF7 breast = tested on: MCF7 breast
HOP-92 NSCLC = tested on: HOP-92 NSCLC
SW-620 colon = tested on: SW-620 colon
SF-539 CNS = tested on: SF-539 CNS
SF-268 CNS = tested on: SF-268 CNS
MDA-MB-231 breast = tested on: MDA-MB-231 breast
OVCAR-8 ovarian = tested on: OVCAR-8 ovarian
A549 NSCLC = tested on: A549 NSCLC
LOX IMVI melanoma = tested on: LOX IMVI melanoma
HCT-116 colon = tested on: HCT-116 colon
UO-31 renal = tested on: UO-31 renal
HT29 colon = tested on: HT29 colon
786-0 renal = tested on: 786-0 renal
PC-3 prostate = tested on: PC-3 prostate
CCRF-CEM leukemia = tested on: CCRF-CEM leukemia
A498 renal = tested on: A498 renal
SF-295 CNS = tested on: SF-295 CNS
OVCAR-4 ovarian = tested on: OVCAR-4 ovarian
CAKI-1 renal = tested on: CAKI-1 renal
NCI/ADR-RES ovarian = tested on: NCI/ADR-RES ovarian
SK-MEL-5 melanoma = tested on: SK-MEL-5 melanoma
HCC-2998 colon = tested on: HCC-2998 colon
HOP-62 NSCLC = tested on: HOP-62 NSCLC
SK-MEL-2 melanoma = tested on: SK-MEL-2 melanoma
KM12 colon = tested on: KM12 colon
SR leukemia = tested on: SR leukemia
UACC-62 melanoma = tested on: UACC-62 melanoma
SN12C renal = tested on: SN12C renal
SNB-19 CNS = tested on: SNB-19 CNS
HL-60(TB) leukemia = tested on: HL-60(TB) leukemia
HS 578T breast = tested on: HS 578T breast

SMILES: CNC(=O)c1cc(Oc2ccc3c(c2)sc2nc(-c4ccc(N(C)C)cc4)cn23)ccn1
- GI50 (OVCAR-5 ovarian): 659 nM
- TGI (OVCAR-5 ovarian): > 50000 nM
- GI50 (SK-MEL-28 melanoma): 1740 nM
- TGI (SK-MEL-28 melanoma): > 50000 nM
- GI50 (RXF 393 renal): 128 nM
- TGI (RXF 393 renal): 440 nM
- GI50 (TK-10 renal): 3720 nM
- TGI (TK-10 renal): > 50000 nM
- GI50 (HCT-15 colon): 202 nM
- TGI (HCT-15 colon): > 50000 nM
- GI50 (MDA-MB-435): 94 nM
- TGI (MDA-MB-435): 237 nM
- GI50 (SK-OV-3 ovarian): 273 nM
- TGI (SK-OV-3 ovarian): > 50000 nM
- GI50 (K-562 leukemia): 152 nM
- TGI (K-562 leukemia): > 50000 nM
- GI50 (MALME-3M melanoma): 291 nM
- TGI (MALME-3M melanoma): > 50000 nM
- GI50 (U251 CNS): 210 nM
- TGI (U251 CNS): 6370 nM
- GI50 (MOLT-4 leukemia): 213 nM
- TGI (MOLT-4 leukemia): > 50000 nM
- GI50 (NCI-H226 lung): 390 nM
- TGI (NCI-H226 lung): > 50000 nM
- GI50 (SNB-75 CNS): 123 nM
- TGI (SNB-75 CNS): 398 nM
- GI50 (NCI-H460 lung): 206 nM
- TGI (NCI-H460 lung): > 50000 nM
- GI50 (IGROV1 ovarian): 292 nM
- TGI (IGROV1 ovarian): > 50000 nM
- GI50 (M14 melanoma): 193 nM
- TGI (M14 melanoma): > 50000 nM
- GI50 (BT-549 breast): 208 nM
- TGI (BT-549 breast): 31400 nM
- GI50 (T-47D breast): 271 nM
- TGI (T-47D breast): > 50000 nM
- GI50 (NCI-H522 lung): 146 nM
- TGI (NCI-H522 lung): 740 nM
- GI50 (NCI-H23 lung): 614 nM
- TGI (NCI-H23 lung): > 50000 nM
- GI50 (EKVX NSCLC): 1980 nM
- TGI (EKVX NSCLC): > 50000 nM
- GI50 (RPMI-8226 leukemia): 329 nM
- TGI (RPMI-8226 leukemia): > 50000 nM
- GI50 (UACC-257 melanoma): 19600 nM
- TGI (UACC-257 melanoma): > 50000 nM
- GI50 (DU-145 prostate): 451 nM
- TGI (DU-145 prostate): > 50000 nM
- GI50 (ACHN renal): 303 nM
- TGI (ACHN renal): > 50000 nM
- GI50 (COLO 205 colon): 260 nM
- TGI (COLO 205 colon): 1960 nM
- GI50 (MCF7 breast): 167 nM
- TGI (MCF7 breast): > 50000 nM
- GI50 (HOP-92 NSCLC): 260 nM
- TGI (HOP-92 NSCLC): > 30300 nM
- GI50 (SW-620 colon): 226 nM
- TGI (SW-620 colon): > 50000 nM
- GI50 (SF-539 CNS): 178 nM
- TGI (SF-539 CNS): 1280 nM
- GI50 (SF-268 CNS): 854 nM
- TGI (SF-268 CNS): > 50000 nM
- GI50 (MDA-MB-231 breast): 438 nM
- TGI (MDA-MB-231 breast): > 37000 nM
- GI50 (OVCAR-8 ovarian): 355 nM
- TGI (OVCAR-8 ovarian): 2600 nM
- GI50 (A549 NSCLC): 409 nM
- TGI (A549 NSCLC): > 50000 nM
- GI50 (LOX IMVI melanoma): 474 nM
- TGI (LOX IMVI melanoma): 1770 nM
- GI50 (HCT-116 colon): 241 nM
- TGI (HCT-116 colon): > 50000 nM
- GI50 (UO-31 renal): 289 nM
- TGI (UO-31 renal): > 50000 nM
- GI50 (HT29 colon): 177 nM
- TGI (HT29 colon): 739 nM
- GI50 (786-0 renal): 291 nM
- TGI (786-0 renal): > 18100 nM
- GI50 (PC-3 prostate): 225 nM
- TGI (PC-3 prostate): > 50000 nM
- GI50 (CCRF-CEM leukemia): 197 nM
- TGI (CCRF-CEM leukemia): > 50000 nM
- GI50 (A498 renal): 140 nM
- TGI (A498 renal): 831 nM
- GI50 (SF-295 CNS): 160 nM
- TGI (SF-295 CNS): 1150 nM
- TGI (OVCAR-4 ovarian): > 50000 nM
- GI50 (CAKI-1 renal): 291 nM
- TGI (CAKI-1 renal): > 50000 nM
- GI50 (NCI/ADR-RES ovarian): 186 nM
- TGI (NCI/ADR-RES ovarian): > 50000 nM
- GI50 (SK-MEL-5 melanoma): 206 nM
- TGI (SK-MEL-5 melanoma): 2110 nM
- GI50 (HCC-2998 colon): 836 nM
- TGI (HCC-2998 colon): > 13400 nM
- GI50 (HOP-62 NSCLC): 319 nM
- TGI (HOP-62 NSCLC): > 50000 nM
- GI50 (SK-MEL-2 melanoma): 496 nM
- TGI (SK-MEL-2 melanoma): > 10500 nM
- GI50 (KM12 colon): 241 nM
- TGI (KM12 colon): > 50000 nM
- GI50 (SR leukemia): 114 nM
- TGI (SR leukemia): > 50000 nM
- GI50 (UACC-62 melanoma): 170 nM
- TGI (UACC-62 melanoma): > 50000 nM
- GI50 (SN12C renal): 282 nM
- TGI (SN12C renal): > 50000 nM
- GI50 (SNB-19 CNS): 251 nM
- TGI (SNB-19 CNS): > 50000 nM
- GI50 (HL-60(TB) leukemia): 134 nM
- TGI (HL-60(TB) leukemia): 3480 nM
- GI50 (HS 578T breast): 219 nM
- TGI (HS 578T breast): > 44100 nM
